# Test system: 556581-035-R-J1 tumor spheroid viability, % test/control
# Test: Anticancer human tumor 556581-035-R-J1 patient-derived ovarian carcinoma cell line growth inhibition
# Details: spheroids with HUVEC and MSC; for IC50: curve of first compound; for viability, T/C: stronger effect = lower value
# Text: Multicellular complex tumor spheroid response to DNA repair inhibitors in combination with DNA-damaging drugs
# This study explores the anticancer activities of DNA-damaging drugs and inhibitors of DNA damage repair, both as single agents and in combinations. Complex tumor spheroids comprised of malignant cells, endothelial cells and mesenchymal stem cells served as an in vitro model for human solid tumors. This model system incorporates physiologically relevant features and patient-derived or established malignant cell lines with clinically relevant genetic alterations from many tumor types. Twenty-six patient-derived or established malignant cell lines were evaluated representing sarcoma, melanoma, small cell lung cancer (SCLC), non-small cell lung cancer (NSCLC), as well as bladder, ovarian and pancreatic cancers. The concentration ranges selected for each drug and investigational agent were based upon clinically achievable concentrations if the clinical Cmax of the agent was known.
# Compounds. The drugs and compounds olaparib (NSC753686), talazoparib (NSC767125), berzosertib (NSC777718), elimusertib (NSC800525), nedisertib (NSC802822), VX-984 (NSC792969), AZD-1390 (NSC803789), temozolomide (NSC362856), topotecan (NSC609699), trabectedin (NSC813783), staurosporine (NSC755774), and gemcitabine (NSC613327) were obtained from the National Cancer Institute (NCI) Developmental Therapeutics Program Chemical Repository. The FDA-approved anticancer drug set is available from the Developmental Therapeutics Program at https://dtp.cancer.gov/organization/dscb/obtaining/available_plates.htm. […] The stock solutions were prepared in dimethyl sulfoxide (DMSO, Sigma-Aldrich, St. Louis, MO, cat. D2650) at 400-fold the tested concentration and stored at -70 degrees C. Prior to their use, the stock solutions were diluted in fresh medium and the final DMSO concentration in the assay was 0.25% (v/v). All drugs and investigational agents were tested over a range starting from a high concentration at or near the clinical Cmax and decreasing in half-log increments. If the clinical Cmax for an agent had not been determined, the highest concentration tested was 10 microM.
# Cell Lines. The patient-derived cancer cell (PDC) lines: 156681-154-R-J1-PDC, 283228-195-R-J1-PDC, 287954-098-R-J1-PDC, 292921-168-R-J2-PDC, 349418-098-R-PDC, 425362-245-T-J1-PDC, 556581-035-R-J1-PDC, and BL0293-F563-PDC were received from the NCI Patient-Derived Models Repository (PDMR, https://pdmr.cancer.gov). The established cell lines HS-SY-2 (RRID:CVCL_8719), MPNST, and SYO-1 (RRID:CVCL_7146) were obtained from the Sloan Kettering Institute. The alveolar soft parts sarcoma cell line ASPS-1 (RRID:CVCL_S738) was established at the NCI and grown from internal seed stocks. The following established cell lines were purchased from the American Type Culture Collection (ATCC, Manassas, VA): G-401 (ATCC, cat. CRL-1441, RRID:CVCL_0270), SW982 (ATCC, cat. HTB-93, RRID:CVCL_1734), VA-ES-BJ (ATCC, cat. CRL-2138, RRID:CVCL_1785), NCI-H719 (ATCC, cat. CRL-5837, RRID:CVCL_1582), NCI-H196 (ATCC, cat. CRL-5823, RRID:CVCL_1509), NCI-H841 (ATCC, cat. CRL-5845, RRID:CVCL_1595), NCI-H1618 (ATCC, cat. CRL-5879, RRID:CVCL_1480), NCI-H1876 (ATCC, cat. CRL-5902, RRID:CVCL_1503), DMS 114 (ATCC, cat. CRL-2066; RRID:CVCL_1174), NCI-H211 (ATCC, cat. CRL-5824; RRID:CVCL_1529), and SW 1271 (ATCC, cat. CRL-2177, RRID:CVCL_1716). The small cell lung cancer cell line COR-L88 was purchased from Sigma-Aldrich (cat. 92031917-1VL, RRID:CVCL_1141). The non-small cell lung cancer cell lines NCI-H226 (RRID:CVCL_1544) and NCI-H322M (RRID:CVCL_1557) were established at the NCI and grown from internal seed stocks. Pooled donor human umbilical vein endothelial cells (HUVEC, Lonza, cat. CC-2519) and human mesenchymal stem cells (hMSC, Lonza, cat. PT-2501) were purchased from Lonza (Walkersville, MD).
# Cell Culture. All cells were maintained in an incubator at 37 degrees C and 5% CO2 with 95% humidity. […]
# [1] = second compound 0.003 µM, first compound 0.0949 µM
# [2] = second compound 0.003 µM, first compound 0.3 µM
# [3] = second compound 0.003 µM, first compound 0.949 µM
# [4] = second compound 0.003 µM, first compound 3 µM
# [5] = second compound 0.00949 µM, first compound 0.0949 µM
# [6] = second compound 0.00949 µM, first compound 0.3 µM
# [7] = second compound 0.00949 µM, first compound 0.949 µM
# [8] = second compound 0.00949 µM, first compound 3 µM
# [9] = second compound 0.03 µM, first compound 0.0949 µM
# [10] = second compound 0.03 µM, first compound 0.3 µM
# [11] = second compound 0.03 µM, first compound 0.949 µM
# [12] = second compound 0.03 µM, first compound 3 µM
# [13] = second compound 0.0949 µM, first compound 0.0949 µM
# [14] = second compound 0.0949 µM, first compound 0.3 µM
# [15] = second compound 0.0949 µM, first compound 0.949 µM
# [16] = second compound 0.0949 µM, first compound 3 µM
# [17] = second compound 0.3 µM, first compound 0.0949 µM
# [18] = second compound 0.3 µM, first compound 0.3 µM
# [19] = second compound 0.3 µM, first compound 0.949 µM
# [20] = second compound 0.3 µM, first compound 3 µM
# 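Also: spheroids exposed to compounds for 7 days before viability read.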
SMILES,IC50 (second compound 0.003 µM),IC50 (second compound 0.00949 µM),IC50 (second compound 0.03 µM),IC50 (second compound 0.0949 µM),IC50 (second compound 0.3 µM),"viability, T/C [1]","viability, T/C [2]","viability, T/C [3]","viability, T/C [4]","viability, T/C [5]","viability, T/C [6]","viability, T/C [7]","viability, T/C [8]","viability, T/C [9]","viability, T/C [10]","viability, T/C [11]","viability, T/C [12]","viability, T/C [13]","viability, T/C [14]","viability, T/C [15]",other results
Cn1ncnc1[C@H]1c2n[nH]c(=O)c3cc(F)cc(c23)N[C@@H]1c1ccc(F)cc1 + CC[C@@]1(O)C(=O)OCc2c1cc1n(c2=O)Cc2cc3c(CN(C)C)c(O)ccc3nc2-1,> 3 µM,> 3 µM,1.3 µM,0.0675 µM,< 0.00949 µM,93.2%,94.3%,71.1%,57.1%,82.2%,71.4%,68.5%,49.4%,63.2%,64.9%,52.9%,39.8%,45%,44.2%,36.2%,"viability, T/C (second compound 0.003 µM, first compound 0.00949 µM): 105%; viability, T/C (second compound 0.003 µM, first compound 0.03 µM): 97.7%; viability, T/C (second compound 0.00949 µM, first compound 0.00949 µM): 88.2%; viability, T/C (second compound 0.00949 µM, first compound 0.03 µM): 81.7%; viability, T/C (second compound 0.03 µM, first compound 0.00949 µM): 70%; viability, T/C (second compound 0.03 µM, first compound 0.03 µM): 67.2%; viability, T/C (second compound 0.0949 µM, first compound 0.00949 µM): 57.9%; viability, T/C (second compound 0.0949 µM, first compound 0.03 µM): 51.3%; viability, T/C [16]: 19.2%; viability, T/C (second compound 0.3 µM, first compound 0.00949 µM): 13.2%; viability, T/C (second compound 0.3 µM, first compound 0.03 µM): 13.1%; viability, T/C [17]: 12.7%; viability, T/C [18]: 11%; viability, T/C [19]: 9.44%; viability, T/C [20]: 6.18%"
O=C(c1cc(Cc2n[nH]c(=O)c3ccccc23)ccc1F)N1CCN(C(=O)C2CC2)CC1 + CC[C@@]1(O)C(=O)OCc2c1cc1n(c2=O)Cc2cc3c(CN(C)C)c(O)ccc3nc2-1,> 30 µM,> 30 µM,> 30 µM,6.48 µM,< 0.0949 µM,103%,104%,103%,95.4%,93%,95.8%,92.7%,86.9%,74.8%,77.9%,75.7%,72.9%,57.2%,58.2%,58.3%,"viability, T/C (second compound 0.003 µM, first compound 9.49 µM): 83.3%; viability, T/C (second compound 0.003 µM, first compound 30 µM): 68.5%; viability, T/C (second compound 0.00949 µM, first compound 9.49 µM): 77.7%; viability, T/C (second compound 0.00949 µM, first compound 30 µM): 68%; viability, T/C (second compound 0.03 µM, first compound 9.49 µM): 63.7%; viability, T/C (second compound 0.03 µM, first compound 30 µM): 55.1%; viability, T/C [16]: 53.4%; viability, T/C (second compound 0.0949 µM, first compound 9.49 µM): 47.2%; viability, T/C (second compound 0.0949 µM, first compound 30 µM): 38.6%; viability, T/C [17]: 16.4%; viability, T/C [18]: 17.7%; viability, T/C [19]: 15%; viability, T/C [20]: 14.6%; viability, T/C (second compound 0.3 µM, first compound 9.49 µM): 12.4%; viability, T/C (second compound 0.3 µM, first compound 30 µM): 12.9%"

# From PubChem BioAssay AID1845199 (Molecular Pharmacology Branch, DTP, NCI, 2023)
